Measurements taken from PubChem BioAssay AID226 (DTP/NCI, 2004).
Where “and” joins values, the source holds several entries; their conditions need not be identical. Equal values may be shown once. Toxic doses and inconclusive results are not listed. The calls were made as follows: active = survival T/C of 150% or more; inactive = T/C below 125% in these data.

Tested on: B6C3F1 mice, intracerebral ependymoblastoma, median survival T/C
Assay: NCI In Vivo Anticancer Drug Screen. Data for tumor model Ependymoblastoma (intracerebral) in B6C3F1 mice
Conditions: endpoint: median survival time, higher = longer survival
Procedure: The antitumor activity of compounds was measured in mice bearing transplantable tumors. Survival or tumor size were measured and the results are expressed as the measurement made in the treated group (T) divided by the measurement made in the vehicle treated control group (C). The tumor model used in this assay is Ependymoblastoma (intracerebral) in B6C3F1 mice

[1] = dose: 100.0 mg/kg/injection, schedule: Q01DX005 (ip), vehicle: saline
[2] = dose: 200.0 mg/kg/injection, schedule: Q01DX005 (ip), vehicle: saline
[3] = dose: 400.0 mg/kg/injection, schedule: Q01DX005 (ip), vehicle: saline
[4] = dose: 4.0 mg/kg/injection, schedule: Q01DX005 (ip), vehicle: saline with Tween-80
[5] = dose: 4.0 mg/kg/injection, schedule: Q01DX005 (ip), vehicle: saline
[6] = dose: 8.0 mg/kg/injection, schedule: Q01DX005 (ip), vehicle: saline with Tween-80
[7] = dose: 8.0 mg/kg/injection, schedule: Q01DX005 (ip), vehicle: saline
[8] = dose: 16.0 mg/kg/injection, schedule: Q01DX005 (ip), vehicle: saline
[9] = dose: 32.0 mg/kg/injection, schedule: Q01DX005 (ip), vehicle: Klucel (hydroxypropylcellulose) (HPC)
[10] = dose: 32.0 mg/kg/injection, schedule: Q01DX005 (ip), vehicle: saline
[11] = dose: 100.0 mg/kg/injection, schedule: Q01DX005 (ip), vehicle: saline with Tween-80

Measured: T/C

CN(N=O)C(=O)N[C@@H](C=O)[C@@H](O)[C@H](O)[C@H](O)CO
inactive: dose: 6.25 mg/kg/injection, schedule: Q01DX009 (ip), vehicle: citric acid 96 % of control | dose: 12.5 mg/kg/injection, schedule: Q01DX005 (ip), vehicle: saline 103 % of control | dose: 12.5 mg/kg/injection, schedule: Q01DX009 (ip), vehicle: citric acid 108 % of control | dose: 25.0 mg/kg/injection, schedule: Q01DX005 (ip), vehicle: saline 122 % of control | dose: 25.0 mg/kg/injection, schedule: Q01DX009 (ip), vehicle: citric acid 117 % of control | dose: 64.0 mg/kg/injection, schedule: Q01DX001 (ip), vehicle: other 108 % of control | dose: 75.0 mg/kg/injection, schedule: Q01DX001 (ip), vehicle: saline 121 % of control | [1] 113 % of control | dose: 128.0 mg/kg/injection, schedule: Q01DX001 (ip), vehicle: other 105 % of control | [2] 113 % of control | dose: 256.0 mg/kg/injection, schedule: Q01DX001 (ip), vehicle: other 101 % of control | [3] 103 % of control | dose: 512.0 mg/kg/injection, schedule: Q01DX001 (ip), vehicle: other 108 % of control

Nc1nc([Se])c2ncn(C3OC(CO)C(O)C3O)c2n1 (stereo not drawn)
inactive: [4] 113 % of control | [5] 102 % of control | dose: 8.0 mg/kg/injection, schedule: Q01DX005 (ip), vehicle: Klucel (hydroxypropylcellulose) (HPC) 106 % of control | [6] 109 % of control | [7] 95 % of control and 105 % of control and 114 % of control | dose: 16.0 mg/kg/injection, schedule: Q01DX005 (ip), vehicle: Klucel (hydroxypropylcellulose) (HPC) 106 % of control | [8] 102 % of control and 108 % of control | [9] 106 % of control | [10] 116 % of control and 121 % of control

CN(C)c1nc(N(C)C)nc(N(C)C)n1
inactive: dose: 50.0 mg/kg/injection, schedule: Q01DX005 (ip), vehicle: saline 94 % of control | [11] 100 % of control | [1] 94 % of control | dose: 200.0 mg/kg/injection, schedule: Q01DX001 (ip), vehicle: saline with Tween-80 92 % of control | dose: 200.0 mg/kg/injection, schedule: Q01DX001 (ip), vehicle: saline 96 % of control and 99 % of control and 104 % of control | dose: 200.0 mg/kg/injection, schedule: Q01DX005 (ip), vehicle: saline with Tween-80 99 % of control | [2] 101 % of control | dose: 400.0 mg/kg/injection, schedule: Q01DX001 (ip), vehicle: saline with Tween-80 100 % of control | dose: 400.0 mg/kg/injection, schedule: Q01DX001 (ip), vehicle: saline 97 % of control and 107 % of control and 89 % of control | dose: 400.0 mg/kg/injection, schedule: Q01DX005 (ip), vehicle: saline with Tween-80 87 % of control | dose: 800.0 mg/kg/injection, schedule: Q01DX001 (ip), vehicle: saline with Tween-80 100 % of control | dose: 800.0 mg/kg/injection, schedule: Q01DX001 (ip), vehicle: saline 92 % of control (2×) and 96 % of control | dose: 1600.0 mg/kg/injection, schedule: Q01DX001 (ip), vehicle: saline 106 % of control

CC(=O)CC(c1ccccc1)c1c(O)c2ccccc2oc1=O (stereo not drawn)
inactive: dose: 0.05 mg/kg/injection, schedule: Q01DX005 (ip), vehicle: Klucel (hydroxypropylcellulose) (HPC) 113 % of control | dose: 0.1 mg/kg/injection, schedule: Q01DX005 (ip), vehicle: Klucel (hydroxypropylcellulose) (HPC) 100 % of control and 108 % of control | dose: 0.2 mg/kg/injection, schedule: Q01DX005 (ip), vehicle: Klucel (hydroxypropylcellulose) (HPC) 105 % of control and 110 % of control | dose: 0.4 mg/kg/injection, schedule: Q01DX005 (ip), vehicle: Klucel (hydroxypropylcellulose) (HPC) 98 % of control and 104 % of control | dose: 0.8 mg/kg/injection, schedule: Q01DX005 (ip), vehicle: Klucel (hydroxypropylcellulose) (HPC) 101 % of control and 88 % of control | dose: 1.6 mg/kg/injection, schedule: Q01DX005 (ip), vehicle: Klucel (hydroxypropylcellulose) (HPC) 98 % of control

CCCC(=O)OCC1OC(n2cnc3c(=S)nc(N)[nH]c32)C(OC(=O)CCC)C1OC(=O)CCC (stereo not drawn)
inactive: dose: 3.12 mg/kg/injection, schedule: Q01DX005 (ip), vehicle: Klucel (hydroxypropylcellulose) (HPC) 102 % of control and 113 % of control | dose: 6.25 mg/kg/injection, schedule: Q01DX005 (ip), vehicle: Klucel (hydroxypropylcellulose) (HPC) 98 % of control and 104 % of control | dose: 12.5 mg/kg/injection, schedule: Q01DX005 (ip), vehicle: Klucel (hydroxypropylcellulose) (HPC) 106 % of control

O=C(O)C(O)C(O)C(=O)O.[NH-]C1CCCCC1[NH-].[Pt+2] (stereo not drawn)
inactive: dose: 2.0 mg/kg/injection, schedule: Q01DX005 (ip), vehicle: dextrose 96 % of control | dose: 4.0 mg/kg/injection, schedule: Q01DX005 (ip), vehicle: dextrose 110 % of control

CN(C)CC(=O)c1ccc(O)c(O)c1
inactive: [1] 100 % of control | [2] 94 % of control | [3] 106 % of control | dose: 800.0 mg/kg/injection, schedule: Q01DX005 (ip), vehicle: saline 108 % of control

COc1cc2cc3c4cc(OC)c(OC)cc4cc[n+]3c(C)c2cc1OC (tested in a mixture with another compound)
inactive: [8] 94 % of control and 98 % of control and 111 % of control | [10] 100 % of control (2×) and 120 % of control | dose: 64.0 mg/kg/injection, schedule: Q01DX005 (ip), vehicle: saline 102 % of control and 105 % of control and 118 % of control | dose: 128.0 mg/kg/injection, schedule: Q01DX005 (ip), vehicle: saline 104 % of control and 109 % of control | dose: 256.0 mg/kg/injection, schedule: Q01DX005 (ip), vehicle: saline 106 % of control

O=[n+]1c2ccccc2n([O-])c2cc(Cl)ccc21
inactive: dose: 12.5 mg/kg/injection, schedule: Q01DX005 (ip), vehicle: saline with Tween-80 100 % of control | dose: 25.0 mg/kg/injection, schedule: Q01DX005 (ip), vehicle: saline with Tween-80 106 % of control | dose: 50.0 mg/kg/injection, schedule: Q01DX005 (ip), vehicle: saline with Tween-80 95 % of control | [11] 89 % of control

CCC1=C(c2ccc(OC)cc2)CCC(C(=O)O)C1C (stereo not drawn)
inactive: [5] 102 % of control | [7] 102 % of control | [8] 102 % of control | [10] 103 % of control

COc1ccc(C(=O)/C(Br)=C/C(=O)O)cc1
inactive: dose: 10.0 mg/kg/injection, schedule: Q01DX005 (ip), vehicle: saline 92 % of control and 104 % of control | dose: 20.0 mg/kg/injection, schedule: Q01DX005 (ip), vehicle: saline 96 % of control and 103 % of control | dose: 40.0 mg/kg/injection, schedule: Q01DX005 (ip), vehicle: saline 94 % of control and 104 % of control

O=c1[nH]c(=O)n(C2CC(O)C(CO)O2)cc1C(F)(F)F (stereo not drawn)
inactive: [9] 102 % of control | dose: 128.0 mg/kg/injection, schedule: Q01DX005 (ip), vehicle: Klucel (hydroxypropylcellulose) (HPC) 97 % of control

Nc1nc(=S)c2ncn(C3CC(O)C(CO)O3)c2[nH]1 (stereo not drawn)
inactive: [4] 93 % of control and 96 % of control | [6] 103 % of control | dose: 16.0 mg/kg/injection, schedule: Q01DX005 (ip), vehicle: saline with Tween-80 92 % of control | dose: 32.0 mg/kg/injection, schedule: Q01DX005 (ip), vehicle: saline with Tween-80 91 % of control and 102 % of control | dose: 64.0 mg/kg/injection, schedule: Q01DX005 (ip), vehicle: saline with Tween-80 100 % of control and 90 % of control
